Earlier results, collected in patent US20030162725A1, “Synergistic pharmaceutical combinations for treating obesity with EGCG” (priority 2002, published 2003).

Test system: mouse

## N[C@@H](Cc1c[nH]c2ccc(O)cc12)C(=O)O [5-HTP, 5-hydroxytryptophan]
i.p., species not restated (studies in the rat and mouse)
  LD50 i.p.: 1400 mg/kg
Per os in the mouse
  LD50 per os: 2500 mg/kg
